Laboratory results from PubChem BioAssay (NCI).
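Protocol summary: plate cells (96-well), add compound at 5 concentrations, incubate 48 h, interpolate endpoints linearly. Definition used: TGI = concentration required for complete inhibition of growth.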

Key:
Assay in all cases: DTP human tumour cell line panel, 48 h
ACHN renal = system: ACHN renal
CAKI-1 renal = system: CAKI-1 renal
EKVX NSCLC = system: EKVX NSCLC
HT29 colon = system: HT29 colon
M14 melanoma = system: M14 melanoma
OVCAR-5 ovarian = system: OVCAR-5 ovarian
UACC-62 melanoma = system: UACC-62 melanoma
CCRF-CEM leukemia = system: CCRF-CEM leukemia
SN12C renal = system: SN12C renal
HL-60(TB) leukemia = system: HL-60(TB) leukemia

| Compound | TGI (ACHN renal) | TGI (CAKI-1 renal) | TGI (EKVX NSCLC) | TGI (HT29 colon) | TGI (M14 melanoma) | TGI (OVCAR-5 ovarian) | TGI (UACC-62 melanoma) | TGI (CCRF-CEM leukemia) | TGI (SN12C renal) | TGI (HL-60(TB) leukemia) |
| --- | --- | --- | --- | --- | --- | --- | --- | --- | --- | --- |
| CC(C)OC(=O)[C@@H](O)[C@H](CO)C1=CC([Si](C)(C)c2ccccc2)=CON1 | > 100 µM | > 100 µM | > 100 µM | > 100 µM | > 100 µM | > 100 µM | > 100 µM |  |  |  |
| COc1ccc(/C=N/NC(=O)c2cnc3[nH]c(=O)n(C)c(=O)c3c2)cc1 | > 100 µM | > 100 µM | > 100 µM | > 100 µM | > 100 µM | > 100 µM | > 100 µM | > 100 µM | > 100 µM |  |
| NC1CC(=O)c2sccc21 (centres undefined) | > 100 µM | > 100 µM | > 100 µM | > 100 µM | > 100 µM | > 100 µM | > 100 µM | > 100 µM | > 100 µM |  |
| Cc1nnc(-n2c(O)cc(=O)n(-c3ccccc3)c2=S)nc1/C=C/c1ccc(N(C)C)cc1 | > 49.5 µM | > 57 µM | > 100 µM | > 100 µM | > 100 µM | > 75.3 µM | > 46.8 µM | > 100 µM | > 96.1 µM | 7.1 µM |
| Cc1ccc(S(=O)(=O)NC(=O)NC(Cc2ccc(O)c(O)c2)C(=O)O)cc1 (centres undefined) | > 100 µM | > 100 µM | > 100 µM | > 100 µM | > 100 µM | > 100 µM | > 100 µM | 63 µM | > 100 µM | > 100 µM |
| CC[C@@]12C=CC(=S)N(CCSc3ccccc3)[C@@H]1c1c(n(S(=O)(=O)c3ccc(OC)cc3)c3ccccc13)CC2 |  | > 100 µM | > 100 µM | > 100 µM | > 100 µM | > 100 µM | > 100 µM | > 100 µM | > 100 µM | > 100 µM |
| C=CCCCCCCCCCOC1C=CC(OC(C)=O)C(COC(C)=O)O1 (centres undefined) | > 100 µM | > 100 µM | > 100 µM | 48.1 µM | 88.9 µM | > 100 µM | > 100 µM | > 100 µM | > 100 µM | > 100 µM |
| CC1CCc2sc3[nH]c(=S)n(-c4ccccc4)c(=O)c3c2C1 (centres undefined) | > 100 µM | > 100 µM | > 100 µM | > 100 µM | > 100 µM | > 100 µM | > 100 µM |  | > 100 µM |  |
| COc1cc2c(cc1OCCCC(=O)Nc1cc(C(=O)NCCCN(C)C)n(C)n1)N=CC1CCCN1C2=O (centres undefined) | 12.6 µM | 50.9 µM | > 62 µM | 18.2 µM | > 27.6 µM | > 26.9 µM |  |  | > 24.6 µM | 0.24 µM |
| COc1cc2c(cc1OC)-c1cc3cc(OC)c(OC)cc3c(=O)n1CC2 | > 86 µM | > 30.3 µM | > 100 µM | > 100 µM | > 100 µM | > 100 µM | 34.7 µM | > 100 µM | > 100 µM | > 100 µM |
| C#CCn1c(=O)c(Cl)cn(/C(=C/C(=O)OCC)C(=O)OCC)c1=O | 3.93 µM | 7.37 µM | 34.3 µM | 39.5 µM | 22.8 µM | 31.7 µM | 29.8 µM | 13.3 µM | 50.6 µM | 8.21 µM |
| NC(=O)CC(N=C1C(=O)OC(C(O)CO)C1=NC(CC(N)=O)C(=O)O)C(=O)O (centres undefined) | > 100 µM | > 100 µM | > 100 µM | > 100 µM | > 100 µM |  | > 100 µM | > 100 µM | > 100 µM | > 100 µM |
| O=[N+]([O-])c1c2nc3n(c2cc2c1nc1n2CCC1)CCC3 | > 100 µM | > 100 µM | > 100 µM | > 100 µM | > 100 µM | > 100 µM | > 100 µM | > 100 µM | > 100 µM | > 100 µM |
| c1ccc2nc(CCC3CCCCN3)ccc2c1 (centres undefined) | > 100 µM | > 100 µM | > 100 µM | > 100 µM | > 100 µM | > 100 µM | > 100 µM | > 100 µM | > 100 µM | > 100 µM |
| CCCCCCC(C)OC(=O)/C=C(\CC(=O)OC(C)CCCCCC)C(=O)OC(C)CCCCCC (centres undefined) | > 100 µM | > 100 µM | > 100 µM | > 100 µM | > 100 µM | > 100 µM | > 100 µM |  | > 100 µM | > 100 µM |
| c1ccc(C2=NCCc3cc4c(cc32)OCO4)cc1 |  | > 100 µM | > 100 µM |  | > 100 µM | > 100 µM | > 100 µM |  | > 100 µM |  |
| CCN(CC)CCCC(C)NC(=O)c1ccc2c(c1)C(=O)c1ccccc1C2=O (centres undefined) | 38.2 µM | 79.3 µM | 55.8 µM | 53 µM | 33.3 µM | 34.2 µM | 39.3 µM | 61.2 µM | 37.6 µM | 34.2 µM |
| CC12CCC(C(Nc3ccccn3)C1=O)C2(C)C (centres undefined) | > 100 µM | > 100 µM | > 100 µM | > 100 µM | > 100 µM | > 100 µM | > 100 µM | > 100 µM | > 100 µM | > 100 µM |
| C=C1C(=O)O[C@@H]2[C@H](O)[C@@H](C)[C@@H]3C=CC(=O)[C@@]3(C)[C@H](OC(=O)C=C(C)C)[C@H]12 |  | 1.74 µM | 5.5 µM | 3.82 µM |  | 4.67 µM | 1.87 µM | 0.461 µM | 2.27 µM | 0.412 µM |
| COc1ccccc1NC(=O)O/N=C(/Cl)C(C)C | 17.4 µM |  | 29.6 µM | 15.3 µM | 20.3 µM | 35.8 µM | 37.4 µM | 3.57 µM | 31.7 µM | 3.6 µM |
| C=C(C)[C@@H]1CCC2=C[C@H](CC(C)=CC3=CC(C)=C(O3)[C@@H]1OC)OC2=O | > 100 µM | > 100 µM | > 100 µM |  | > 100 µM | > 100 µM | > 100 µM | > 100 µM | > 100 µM | > 100 µM |
| O=C1C(NCCN2CCOCC2)=C(Cl)C(=O)c2ncccc21 | 2.31 µM |  | 2.79 µM | 2.95 µM | 1.73 µM | 3.18 µM | 2.17 µM | 1.1 µM | 2.74 µM | 0.168 µM |
